Test results: patent US8101634B2, “Bicyclic compounds and use as antidiabetics” (GlaxoSmithKline LLC, priority 2006, dated 2012)

Legend:
C57BI6/J mice = test: Oral glucose tolerance test (OGTT) in normal mice one hour after oral administration; assay type: in vivo; details: for glucose area-under-the curve (AUC) over the 120 minute time course, result in words: OGTT in mice, vs vehicle; for % of Vehicle (glucose cAUC): OGTT one hour after p.o. dosing; for % of Vehicle (glucose cAUC) / Glucose cAUC (baseline corrected glucose area under the curve during OGTT): Examples 30 mg/kg, vildagliptin 10 mg/kg, n=10; for Glucose cAUC (baseline corrected glucose area under the curve during OGTT): fasted male C57BI6/J mice, OGTT 2 g dextrose/kg one hour after p.o. dosing, mean ± s.e.m., 120 min
Protocol: In Vivo Effects of GPR119 Agonists on Incretin Hormone Release and Glucose Homeostasis in Mice
Vehicle or compounds were delivered orally via a gavage needle (p.o. at 10 mls/kg). The effect of the GPR119 agonists on glucose homeostasis was assessed by conducting an oral glucose tolerance test (OGTT; 2 g dextrose per kg body weight) one hour after administration of vehicle or test compounds. Whole blood glucose levels were determined prior to compound administration, immediately before and 10, 20, 30, 45, 60, 90 and 120 after glucose administration, using a Glucometer (Freestyle, Therasense).
Table 1 summarizes the glucose excursions during the OGTT as the average baseline corrected glucose area under the curve (cAUC; ±s.e.m.) from the animals in each treatment group.

C57/BI6 mice = test: Plasma total GLP-1 and total GIP in normal mice one hour after oral administration; assay type: in vivo; details: for total circulating GIP levels, result in words / total circulating GLP-1 levels, result in words: 1 hr after giving the compound, compared to vehicle; for Total GIP (plasma) / Total GLP-1 (plasma) / Total GIP, fold change vs. Vehicle / Total GLP-1, fold change vs. Vehicle: C56BI6/J mice, one hour following oral administration of 30 mg/kg; for Total GIP (plasma) / Total GLP-1 (plasma): fasted, mean ± s.e.m.
Protocol: GPR119 Agonists Elevate GIP and GLP-1 in Normal Mice
Male C57/BI6 mice 10 weeks of age were fasted for 15 hrs and randomly grouped (n=6-10) to receive vehicle (0.5% HPMC/0.1% Tween) or a GPR119 agonists of the present invention at 30 mg/kg. 1 hr after compound administration blood was collected by cardiac-stick following iso-fluorane aneasthesia. Blood for analysis of plasma levels of total GLP-1 and total GIP was placed in a K2-EDTA containing tubes supplemented with a DPP-IV inhibitor to prevent degradation of the incretin hormones (30 µM final concentration). Total GLP-1 was determined using an assay from Meso Scale Discovery (Gaithersburg, Md.). GIP was determined using an ELISA assay from Linco (St. Charles, Mo.). For each treatment group Table 2 summarizes the average plasma levels of total GLP-1 (±s.e.m.) from the number of animals in each treatment group as indicated.
Table 3 summarizes the average plasma levels of total GIP (±s.e.m.) from the number of animals in each treatment group as indicated.

**Q.** For `CC(C)OC(=O)N1CCC(COc2ccc(-c3ccc(S(C)(=O)=O)cc3F)nc2)CC1` [Example 77, 1-Methylethyl 4-[({6-[2-fluoro-4-(methylsulfonyl)phenyl]-3-pyridinyl}oxy)methyl]-1-piperidinecarboxylate], which “glucose area-under-the curve (AUC) over the 120 minute time course, result in words” value (C57BI6/J mice) is on record?
**A.** The value was “significantly lowered”.

**Q.** And the “% of Vehicle (glucose cAUC)” value (C57BI6/J mice)?
**A.** Its value is 21%.

**Q.** And the “Glucose cAUC (baseline corrected glucose area under the curve during OGTT)” value (C57BI6/J mice)?
**A.** The value was 6884 ± 694 mg·min/dL.

**Q.** What about the “total circulating GIP levels, result in words” value (C57/BI6 mice) of the same compound?
**A.** Its value is “increase”.

**Q.** What about the “total circulating GLP-1 levels, result in words” value (C57/BI6 mice) of the same compound?
**A.** Its value is “increase”.

**Q.** And the “Total GIP (plasma)” value (C57/BI6 mice)?
**A.** Its value is 182 ± 12 pg/mL.

**Q.** What about the “Total GLP-1 (plasma)” value (C57/BI6 mice) of the same compound?
**A.** The value was 7.5 ± 2.0 pg/mL.

**Q.** What about the “Total GIP, fold change vs. Vehicle” value (C57/BI6 mice) of the same compound?
**A.** The value was 2.2.

**Q.** And the “Total GLP-1, fold change vs. Vehicle” value (C57/BI6 mice)?
**A.** Its value is 3.3.

**Q.** What does the source list for `CC(C)c1noc(N2CCC(COc3ccc(-c4ccc(S(C)(=O)=O)cc4F)nc3)CC2)n1` [Example 83, 2-[2-Fluoro-4-(methylsulfonyl)phenyl]-5-[({1-[3-(1-methylethyl)-1,2,4-oxadiazol-5-yl]-4-piperidinyl}methyl)oxy]pyridine]?
**A.** glucose area-under-the curve (AUC) over the 120 minute time course, result in words (C57BI6/J mice): significantly lowered; % of Vehicle (glucose cAUC) (C57BI6/J mice): 23%; Glucose cAUC (baseline corrected glucose area under the curve during OGTT) (C57BI6/J mice): 6754 ± 286 mg·min/dL; total circulating GIP levels, result in words (C57/BI6 mice): increase; total circulating GLP-1 levels, result in words (C57/BI6 mice): increase; Total GIP (plasma) (C57/BI6 mice): 275 ± 29 pg/mL; Total GLP-1 (plasma) (C57/BI6 mice): 6.8 ± 1.8 pg/mL; Total GIP, fold change vs. Vehicle (C57/BI6 mice): 3.3; Total GLP-1, fold change vs. Vehicle (C57/BI6 mice): 3.0
